Here are results for 19 compounds from US11306071B2, “Heterocyclic compounds as adenosine antagonists” (Nuvation Bio Inc., priority 2019, dated 2022).

Test [1] concerns the target HEK-293 cells expressing human recombinant adenosine A2A receptor (Homo sapiens (Human), UniProt P29274). Put plainly: cAMP assay (Assay 2), A2A receptor. It is filed as cell-based. On the procedure:
The functional activity of compounds was tested using Assay 2, below, to detect the presence of cAMP. Assay 1 is an alternative assay for this purpose. Activation of G-protein coupled receptors (such as A2A) results in activation of adenylyl cyclase which converts ATP into cAMP which is used as a downstream signaling molecule. Therefore, molecules which act as GPCR (or specifically A2A receptor) antagonists cause a decrease in intracellular cAMP concentration.
Assay 2 (Table B2): This assay used HEK-293 cells expressing human recombinant adenosine A2A receptor (or, alternatively, A1 receptor) that were grown prior to the test in media without antibiotic. 100 nL of test articles at 100x of final concentration were transferred to assay plate by Echo. Cells were washed twice with 5 mL of PBS and 10 μL of cells were mixed with 5 mL PBS. After aspirating the PBS and adding 1.5 mL versine, cells were incubated at 37° C. for 2-5 min. After centrifugation, 4 mL of medium was added and adjusted cell density to 5,000 cells/well with Stimulation Buffer. 10 μL of cells were aliquoted to the assay plate, centrifuged at 1000 rpm for 1 minute, and incubated for 60 minutes at room temperature. 5 μL 4× Eu-cAMP tracer solution and 5 μL 4× Ulight™-anti-cAMP solution were added to assay plate, followed by centrifugation and 60-minute incubation at room temperature. Plates were read on EnVision.
A general note: Cyclic AMP is a second messenger, typically raised through Gs and lowered through Gi signalling.

The target of test [2] is adenosine A1 (human) membrane (Homo sapiens (Human), UniProt P30542). Put plainly: A1 adenosine receptor radioligand binding assay ([3H] DPCPX). The conditions noted are these: 200 nM compound; radioligand [3H] DPCPX 1 nM. On the procedure: A second A1 adenosine receptor radioligand binding assay protocol was used. The protocol used adenosine A1 (human) membrane (PerkinElmer ES-010-M400UA) at a concentration of 2.5 μg/well/100 μl and the radioligand [3H] DPCPX (Cat No. PerkinElmer-NET974250UC) at a final concentration of 1 nM. Testing compounds were tested at a final concentration of 200 nM. CGS-15943, the reference compound, was tested in an 8-point 4-fold serial dilution, starting at a top concentration of 1 μM. 1 μl of compounds/high control/low control was transferred to the assay plate according to a plate map, followed by 100 μl of membrane stocks and 100 μl of radioligand, in assay buffer (25 mM HEPES, 5 mM MgCl2, 1 mM CaCl2, 100 mM NaCl, pH 7.4). The plate was sealed and incubated at RT for 1 hour. Unifilter-96 GF/C filter plates (Perkin Elmer Cat #6005174) were soaked with 50 μl of 0.3% PEI per well for at least 0.5 hour at room temperature. When the binding assays were completed, the reaction mixtures were filtered through GF/C plates using Perkin Elmer Filtermate Harvester, and each plate washed 4 times with cold wash buffer (25 mM HEPES, 5 mM MgCl2, 1 mM CaCl2, 100 mM NaCl, pH 7.4). The filter plates were dried for 1 hour at 50 degrees. After drying, the bottom of the filter plate wells was sealed, 50 μl of Perkin Elmer Microscint 20 cocktail was added, and the top of the filter plate was sealed. ^3H trapped on the filter was counted using Perkin Elmer MicroBeta2 Reader. The data were analyzed with GraphPad Prism 5 to obtain binding IC50 values for the reference compound. The “Inhibition [% Control]” was calculated using the equation: % Inh=(1-Background subtracted Assay value/Background subtracted HC value)*100, where HC is high control.

The target in test [3] is adenosine A2a (human) membrane (Homo sapiens (Human), UniProt P29274). As to the kind of experiment: A2A adenosine receptor radioligand binding assay ([3H] CGS-21680). Particulars: radioligand [3H] CGS-21680 6 nM. On the procedure:
A second A2A adenosine receptor radioligand binding assay protocol was used. The protocol used adenosine A2a (human) membrane (PerkinElmer RBHA2AM400UA) at a concentration of 5 μg/well/100 μl and the radioligand [3H] CGS-21680 (Cat No. PerkinElmer-NET1021250UC) at a final concentration of 6 nM. Testing compounds were diluted with DMSO to make 8-point 4-fold serial dilution, starting at 0.2 mM. CGS-15943 was the reference compound. 1 μl of compounds/high control/low control was transferred to the assay plate according to a plate map, followed by 100 μl of membrane stocks and 100 μl of radioligand, in assay buffer (50 mM Tris-HCl, 10 mM MgCl2, 1 mM EDTA, pH 7.4). The plate was sealed and incubated at RT for 2 hours. Unifilter-96 GF/C filter plates (Perkin Elmer Cat #6005174) were soaked with 50 μl of 0.3% PEI per well for at least 0.5 hour at room temperature. When the binding assays were completed, the reaction mixtures were filtered through GF/C plates using Perkin Elmer Filtermate Harvester, and each plate washed 4 times with cold wash buffer (50 mM Tris-HCl, 154 mM NaCl, pH 7.4). The filter plates were dried for 1 hour at 50 degrees. After drying, the bottom of the filter plate wells was sealed, 50 μl of Perkin Elmer Microscint 20 cocktail was added, and the top of the filter plate was sealed. ^3H trapped on the filter was counted using Perkin Elmer MicroBeta2 Reader. The data were analyzed with GraphPad Prism 5 to obtain binding IC50 values. The “Inhibition [% Control]” was calculated using the equation: % Inh=(1-Background subtracted Assay value/Background subtracted HC value)*100, where HC is high control.

pIC50: −log10 of the molar value.

Sequence of adenosine A2a (human) membrane (P29274 whole entry): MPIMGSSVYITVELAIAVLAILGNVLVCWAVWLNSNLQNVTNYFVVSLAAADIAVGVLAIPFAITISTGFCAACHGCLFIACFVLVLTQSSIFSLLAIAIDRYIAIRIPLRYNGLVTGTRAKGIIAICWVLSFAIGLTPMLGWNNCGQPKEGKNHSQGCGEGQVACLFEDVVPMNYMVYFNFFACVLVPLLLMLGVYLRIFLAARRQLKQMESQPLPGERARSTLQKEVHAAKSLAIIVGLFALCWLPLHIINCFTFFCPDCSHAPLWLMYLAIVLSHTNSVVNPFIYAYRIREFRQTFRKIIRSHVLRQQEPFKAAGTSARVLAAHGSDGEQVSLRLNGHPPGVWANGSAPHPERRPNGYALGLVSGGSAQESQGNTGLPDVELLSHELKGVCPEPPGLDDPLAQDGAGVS
Sequence of HEK-293 cells expressing human recombinant adenosine A2A receptor (P29274 whole entry): as above
Sequence of adenosine A1 (human) membrane (P30542 whole entry): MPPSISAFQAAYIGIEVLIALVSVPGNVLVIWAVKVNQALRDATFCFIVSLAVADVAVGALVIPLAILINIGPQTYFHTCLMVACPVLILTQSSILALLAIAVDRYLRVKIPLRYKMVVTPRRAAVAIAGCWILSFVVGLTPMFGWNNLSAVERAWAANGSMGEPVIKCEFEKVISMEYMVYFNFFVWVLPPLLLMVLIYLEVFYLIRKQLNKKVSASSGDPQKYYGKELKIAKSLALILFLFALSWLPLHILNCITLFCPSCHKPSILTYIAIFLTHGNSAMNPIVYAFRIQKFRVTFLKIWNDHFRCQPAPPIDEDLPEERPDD

As a reminder, the pIC50 is the negative decadic logarithm of the IC50, by convention in mol/L. Usually inhibition stands for the relative decrease from the control value, in per cent. Take `Cc1c(C#N)cccc1-c1nc(N)cnc1-c1cc(Cl)c2ncccc2c1` [2-2, 3-(6-amino-3-(8-chloroquinolin-6-yl)pyrazin-2-yl)-2-methylbenzonitrile]: the negative logarithm of the IC50 (pIC50) in test [1] was 6.49. This compound came in with an inhibition at 0.2 µM in test [2] of 30%.
As to `CC(NC(=O)c1nc(-c2cc(Cl)c3ncccc3c2)c(-c2ccn(C)n2)nc1N)c1cccc(C#N)n1` (stereo not shown) [Compound No. 99, 3-amino-6-(8-chloroquinolin-6-yl)-N-(1-(6-cyanopyridin-2-yl)ethyl)-5-(1-methyl-1H-pyrazol-3-yl)pyrazine-2-carboxamide], in test [1], the pIC50 is 7.14.
In the case of `CC(NC(=O)c1nc(-c2ccc3ncccc3c2)c(-c2ccccc2)nc1N)c1cccc(C#N)n1` (stereo not shown) [Compound No. 111, 3-amino-N-(1-(6-cyanopyridin-2-yl)ethyl)-5-phenyl-6-(quinolin-6-yl)pyrazine-2-carboxamide], 0.2 µM produced 92% inhibition in test [2]. In test [3], this compound showed a pIC50 of 8.41.
In the same order, the values of `C[C@@H](NC(=O)c1nc(-c2cc(Cl)c3[nH]ncc3c2)c(-c2ccn(C)n2)nc1N)c1ccccn1` [Compound No. 112, (R)-3-amino-6-(7-chloro-1H-indazol-5-yl)-5-(1-methyl-1H-pyrazol-3-yl)-N-(1-(pyridin-2-yl)ethyl)pyrazine-2-carboxamide] are 77% and 8.80.
Consider `C[C@@H](NC(=O)c1nc(-c2cc(Cl)c3ncccc3c2)c(-c2ccccc2)nc1N)c1ccccn1` [Compound No. 113, (R)-3-amino-6-(8-chloroquinolin-6-yl)-5-phenyl-N-(1-(pyridin-2-yl)ethyl)pyrazine-2-carboxamide], for which the inhibition at 0.2 µM in test [2] was found to be 58%. The pIC50 in test [3] is 8.33.
In test [2], `CC(NC(=O)c1nc(-c2cc(Cl)c3ncccc3c2)c(-c2ccccc2)nc1N)c1cccc(C#N)n1` (stereo not shown) [Compound No. 114, 3-amino-6-(8-chloroquinolin-6-yl)-N-(1-(6-cyanopyridin-2-yl)ethyl)-5-phenylpyrazine-2-carboxamide] had an inhibition at 0.2 µM of 95%. The pIC50 in test [3] is 8.46.
In the same order, the values of `C[C@@H](NC(=O)c1nc(-c2ccc3ncccc3c2)c(-c2ccccc2)nc1N)c1cccc(C#N)n1` [Compound No. 115, (R)-3-amino-N-(1-(6-cyanopyridin-2-yl)ethyl)-5-phenyl-6-(quinolin-6-yl)pyrazine-2-carboxamide] are 74% and 7.19.
For `C[C@H](NC(=O)c1nc(-c2ccc3ncccc3c2)c(-c2ccccc2)nc1N)c1cccc(C#N)n1` [Compound No. 116, (S)-3-amino-N-(1-(6-cyanopyridin-2-yl)ethyl)-5-phenyl-6-(quinolin-6-yl)pyrazine-2-carboxamide] the same measures were 98% and 8.27.
In the same order, the values of `C[C@@H](NC(=O)c1nc(-c2ccc3ncccc3c2)c(-c2cccc(C#N)c2)nc1N)c1cccc(C#N)n1` [Compound No. 117, (R)-3-amino-5-(3-cyanophenyl)-N-(1-(6-cyanopyridin-2-yl)ethyl)-6-(quinolin-6-yl)pyrazine-2-carboxamide] are 56% and 6.57.
`C[C@H](NC(=O)c1nc(-c2ccc3ncccc3c2)c(-c2cccc(C#N)c2)nc1N)c1cccc(C#N)n1` [Compound No. 118, (S)-3-amino-5-(3-cyanophenyl)-N-(1-(6-cyanopyridin-2-yl)ethyl)-6-(quinolin-6-yl)pyrazine-2-carboxamide]: the inhibition at 0.2 µM in test [2] turned out to be 92%. For the same compound, the pIC50 in test [3] is 7.80.
Take `CC(NC(=O)c1nc(-c2cc(Cl)c3ncccc3c2)c(-c2ccccc2)nc1N)c1ccccn1` (stereo not shown) [Compound No. 119, 3-amino-6-(8-chloroquinolin-6-yl)-5-phenyl-N-(1-(pyridin-2-yl)ethyl)pyrazine-2-carboxamide]: the “A1 binding inhibition at 200 nM (%)” value in test [2] came to 92%. This compound gave a pIC50 in test [3] of 7.92.
Consider `CC(NC(=O)c1nc(-c2ccc3ncccc3c2)c(-c2ccccc2)nc1N)c1ncccn1` (stereo not shown) [Compound No. 120, 3-amino-5-phenyl-N-(1-(pyrimidin-2-yl)ethyl)-6-(quinolin-6-yl)pyrazine-2-carboxamide], for which at 0.2 µM the inhibition in test [2] was 45%. In addition, the pIC50 in test [3] is 8.17.
For `C[C@@H](NC(=O)c1nc(-c2cc(Cl)c3ncccc3c2)c(-c2ccccc2)nc1N)c1cccc(C#N)n1` [Compound No. 121, (R)-3-amino-6-(8-chloroquinolin-6-yl)-N-(1-(6-cyanopyridin-2-yl)ethyl)-5-phenylpyrazine-2-carboxamide] the same measures were 80% and 8.96.
On to `C[C@@H](NC(=O)c1nc(-c2cc(Cl)c3ncccc3c2)c(-c2ccccc2)nc1N)c1ccccn1` [Compound No. 123, (R)-3-amino-6-(8-chloroquinolin-6-yl)-5-phenyl-N-(1-(pyridin-2-yl)ethyl)pyrazine-2-carboxamide], for which the “A1 binding inhibition at 200 nM (%)” value in test [2] came to 89%. The compound further gave a pIC50 in test [3] of 8.96.
Turning to `CC(NC(=O)c1nc(-c2ccc3ncccc3c2)c(-c2ccn(C)n2)nc1N)c1cccc(C#N)n1` (stereo not shown) [Compound No. 127, 3-amino-N-(1-(6-cyanopyridin-2-yl)ethyl)-5-(1-methyl-1H-pyrazol-3-yl)-6-(quinolin-6-yl)pyrazine-2-carboxamide], the inhibition at 0.2 µM in test [2] worked out at 84%. In test [3], this compound had a pIC50 of 8.41.
`C[C@H](NC(=O)c1nc(-c2ccc3ncccc3c2)c(-c2ccccc2)nc1N)c1cnccn1` [Compound No. 129, (S)-3-amino-5-phenyl-N-(1-(pyrazin-2-yl)ethyl)-6-(quinolin-6-yl)pyrazine-2-carboxamide] had an inhibition at 0.2 µM in test [2] of 61%. The same compound had a negative-log IC50 (pIC50) in test [3] of 8.41.
`CC(NC(=O)c1nc(-c2ccc3ncccc3c2)c(-c2ccn(C)n2)nc1N)c1ccccn1` (stereo not shown) [Compound No. 459, 3-amino-5-(1-methyl-1H-pyrazol-3-yl)-N-(1-(pyridin-2-yl)ethyl)-6-(quinolin-6-yl)pyrazine-2-carboxamide]: the negative logarithm of the IC50 (pIC50) in test [3] is 8.33.
On the same count and under the same terms, next, `CC(NC(=O)c1nc(-c2ccc3ncccc3c2)c(-c2ccn(C)n2)nc1N)c1ncccn1` (stereo not shown) [Compound No. 460, 3-amino-5-(1-methyl-1H-pyrazol-3-yl)-N-(1-(pyrimidin-2-yl)ethyl)-6-(quinolin-6-yl)pyrazine-2-carboxamide]: 8.14.
With `CCN(CC)CCNc1nc(-c2ccc3ncccc3c2)c(-c2ccccc2)nc1N` [compound 1, N2-(2-(diethylamino)ethyl)-5-phenyl-6-(quinolin-6-yl)pyrazine-2,3-diamine], the negative-log IC50 (pIC50) in test [1] was 6.58.
